In BindingDB's records for patent US20240018157 (Schrödinger, 2024):

Molecular target: T1, Mucosa-associated lymphoid tissue lymphoma translocation protein 1 (Homo sapiens, UniProt Q9UDY8)
T1 sequence (Q9UDY8 whole entry): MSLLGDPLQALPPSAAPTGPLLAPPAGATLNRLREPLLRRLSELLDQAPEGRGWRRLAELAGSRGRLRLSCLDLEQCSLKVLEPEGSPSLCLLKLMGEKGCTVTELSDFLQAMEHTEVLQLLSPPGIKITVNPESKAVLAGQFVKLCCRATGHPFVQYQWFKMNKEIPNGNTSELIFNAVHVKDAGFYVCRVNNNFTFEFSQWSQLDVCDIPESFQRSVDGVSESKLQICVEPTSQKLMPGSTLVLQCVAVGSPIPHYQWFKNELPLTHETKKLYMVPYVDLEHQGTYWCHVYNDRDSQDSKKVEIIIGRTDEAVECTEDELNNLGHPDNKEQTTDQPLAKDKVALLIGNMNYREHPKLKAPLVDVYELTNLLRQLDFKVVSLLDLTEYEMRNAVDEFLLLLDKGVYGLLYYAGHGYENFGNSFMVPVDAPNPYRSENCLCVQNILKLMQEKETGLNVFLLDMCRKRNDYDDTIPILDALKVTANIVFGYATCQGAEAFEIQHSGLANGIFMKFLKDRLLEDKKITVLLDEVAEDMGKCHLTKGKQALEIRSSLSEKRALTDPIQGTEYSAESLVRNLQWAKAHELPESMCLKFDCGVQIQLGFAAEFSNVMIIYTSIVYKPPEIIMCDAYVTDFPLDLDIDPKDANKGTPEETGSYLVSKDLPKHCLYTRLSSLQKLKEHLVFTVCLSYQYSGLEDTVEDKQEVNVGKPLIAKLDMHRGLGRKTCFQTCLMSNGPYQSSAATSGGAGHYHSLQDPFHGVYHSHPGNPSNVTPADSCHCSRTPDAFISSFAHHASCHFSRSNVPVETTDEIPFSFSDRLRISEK
Assay: MALT1 Protease Assay 2
Method: Test compounds were dissolved in 100% DMSO at stock of 10 mM, with final DMSO concentration 0.1%. Test compounds were pre-incubated with MALT1 protein for 2 h at room temperature.

`CC1(C)CN(C(=O)Nc2cnc(-n3nccn3)c(Cl)c2)c2cnc3cc(Cl)nn3c21` [US20240018157, Example 1] and `C[C@@]1(C2CC2)CN(C(=O)Nc2cnc(-n3nccn3)c(Cl)c2)c2cnc3cc(Cl)nn3c21` [US20240018157, Example 4] fall in the same range of IC50: 10 to 100 nM for the first, 10 to 100 nM for the second.

First: COc1ncc(NC(=O)N2C[C@@](C)(C(F)(F)F)c3c2cnc2cc(Cl)nn32)cc1Cl [US20240018157, Example 18]
Second: C[C@@H](O)COc1ncc(NC(=O)N2C[C@@](C)(C(F)(F)F)c3c2cnc2cc(Cl)nn32)cc1Cl [US20240018157, Example 74]
The IC50 of the first is lower: less than 10 nM for the first, 10 to 100 nM for the second.

Compared with `C[C@@]1(C(F)(F)F)CN(C(=O)Nc2cnc(-n3ncc(CO)n3)c(Cl)c2)c2cnc3cc(Cl)nn3c21` [US20240018157, Example 24], `CN(C)Cc1cnn(-c2ncc(NC(=O)N3C[C@@](C)(C(F)(F)F)c4c3cnc3cc(Cl)nn43)cc2Cl)n1` [US20240018157, Example 29] is higher in IC50: less than 10 nM for the first, 10 to 100 nM for the second. The first is the more potent here.

`C[C@@]1(C(F)(F)F)CN(C(=O)Nc2ccnc(C(F)(F)F)c2)c2cnc3cc(Cl)nn3c21` [US20240018157, Example 27] and `C[C@@]1(C(F)(F)F)CN(C(=O)Nc2ccnc(C(F)F)c2)c2cnc3cc(Cl)nn3c21` [US20240018157, Example 60] cannot be ordered by IC50: less than 10 nM for the first, less than 10 nM for the second.

`Cc1cc2ncc3c(n2n1)[C@](C)(C(F)(F)F)CN3C(=O)Nc1cnc(-n2nccn2)c(Cl)c1` [US20240018157, Example 32] and `C[C@@]1(C(F)(F)F)CN(C(=O)Nc2cnc(-n3nccn3)c(Cl)c2)c2cnc3cc(F)nn3c21` [US20240018157, Example 39] cannot be ordered by IC50: less than 10 nM for the first, less than 10 nM for the second.

`C[C@@]1(C(F)(F)F)CN(C(=O)Nc2cnc(-n3nccn3)c(C(F)F)c2)c2cnc3cc(Cl)nn3c21` [US20240018157, Example 35] and `C[C@@]1(C(F)(F)F)CN(C(=O)Nc2cnc(-n3ccnn3)c(C(F)F)c2)c2cnc3cc(Cl)nn3c21` [US20240018157, Example 36] cannot be ordered by IC50: less than 10 nM for the first, less than 10 nM for the second.

`C[C@@]1(C(F)(F)F)CN(C(=O)N[C@H]2CCCC(F)(F)C2)c2cnc3cc(Cl)nn3c21` [US20240018157, Example 53] and `C[C@@]1(C(F)(F)F)CN(C(=O)Nc2cnc(C3(O)CC3)c(Cl)c2)c2cnc3cc(Cl)nn3c21` [US20240018157, Example 67] fall in the same range of IC50: 100 to 1000 nM for the first, 100 to 1000 nM for the second.

Compared with `C[C@@]1(C(F)(F)F)CN(C(=O)Nc2cnc([C@H](O)CO)c(Cl)c2)c2cnc3cc(Cl)nn3c21` [US20240018157, Example 55], `C[C@@]1(C(F)(F)F)CN(C(=O)Nc2cnc([C@@H](O)CO)c(Cl)c2)c2cnc3cc(Cl)nn3c21` [US20240018157, Example 56] is higher in IC50: 10 to 100 nM for the first, 100 to 1000 nM for the second. The first is the more potent here.

`C[C@@]1(C(F)(F)F)CN(C(=O)Nc2cnc(-n3cc(CO)cn3)c(Cl)c2)c2cnc3cc(Cl)nn3c21` [US20240018157, Example 57] and `C[C@@]1(C(F)(F)F)CN(C(=O)Nc2cnc(-n3ncc([C@H](O)CO)n3)c(Cl)c2)c2cnc3cc(Cl)nn3c21` [US20240018157, Example 70] cannot be ordered by IC50: less than 10 nM for the first, less than 10 nM for the second.

`COc1c(Cl)cc(NC(=O)N2C[C@@](C)(C(F)(F)F)c3c2cnc2cc(Cl)nn32)nc1O[C@H]1CCNC1` [US20240018157, Example 63] and `COc1cnc(C(F)(F)F)cc1NC(=O)N1C[C@@](C)(C(F)(F)F)c2c1cnc1cc(Cl)nn21` [US20240018157, Example 66] cannot be ordered by IC50: less than 10 nM for the first, less than 10 nM for the second.

`C[C@@]1(C(F)(F)F)CN(C(=O)Nc2cnnc(C(F)F)c2)c2cnc3cc(Cl)nn3c21` [US20240018157, Example 65] and `C[C@H](O)c1cc(NC(=O)N2C[C@@](C)(C(F)(F)F)c3c2cnc2cc(Cl)nn32)cc(C(F)(F)F)n1` [US20240018157, Example 68] fall in the same range of IC50: 10 to 100 nM for the first, 10 to 100 nM for the second.

Compared with `C[C@@H](O)c1cc(NC(=O)N2C[C@@](C)(C(F)(F)F)c3c2cnc2cc(Cl)nn32)cc(C(F)(F)F)n1` [US20240018157, Example 69], `C[C@@]1(C(F)(F)F)CN(C(=O)Nc2cnc(-n3ncc([C@@H](O)CO)n3)c(Cl)c2)c2cnc3cc(Cl)nn3c21` [US20240018157, Example 71] is lower in IC50: 10 to 100 nM for the first, less than 10 nM for the second. The second is the more potent here.
